Publication PMC10999543, “Identification of kinase modulators as host-directed therapeutics against intracellular methicillin-resistant Staphylococcus aureus” (Frontiers in Cellular and Infection Microbiology, 2024)
Read-outs that look alike come from different tables or passages of the source.

How the values were obtained:
[1] = test system: intracellular MRSA; type: cell-based, Staphylococcus aureus; details: for %GFP+ rep 1 / z-scoreMRSA+ rep 1: replicate 1; for %GFP+ rep 2 / z-scoreMRSA+ rep 2: replicate 2; for %GFP+ rep 3 / z-scoreMRSA+ rep 3: replicate 3; for z-scoreMRSA+ mean: mean of 3 replicates
Summary of the method: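 HeLa cells infected with GFP-MRSA (MOI ~6.8), gentamicin-cleared, then incubated overnight at 37°C with inhibitors plus 5 µg/ml gentamicin; DMSO as negative control, triplicates. Flow cytometry gave % GFP-positive cells and cell count (viability surrogate); hits by plate z-score (MRSA ≤ -2, HeLa count ≥ -3).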

[2] = test system: HeLa cells; experiment: Compound screen by flow cytometry: HeLa cell count as surrogate readout of cell viability (z-scoreHeLa); type: cell-based, human; details: for cell count rep 1 / z-scoreHeLa rep 1: replicate 1; for cell count rep 2 / z-scoreHeLa rep 2: replicate 2; for cell count rep 3 / z-scoreHeLa rep 3: replicate 3; for z-scoreHeLa mean: mean of 3 replicates
Summary of the method: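 HeLa cells were infected with GFP-MRSA (mean MOI 6.8 ± 4.6) for 1 h, and extracellular bacteria were killed with 30 µg/ml gentamicin. Cells were then incubated overnight with kinase inhibitors in 5 µg/ml gentamicin, in triplicate against DMSO controls. Flow-cytometric cell count served as a viability surrogate, expressed as a plate z-score.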

[3] = PKIS compound screen raw data, MRSA-infected HeLa cells
[4] = Yes/No: effect without cell death
[5] = compound screen, MRSA-infected HeLa cells
[6] = PKIS compound screen raw data, HeLa cell count
[7] = compound screen, HeLa cell count
[8] = PKIS compound screen, MRSA-infected HeLa cells
[9] = PKIS compound screen, Yes/No call (effect without cell death)
[10] = PKIS compound screen, Yes/No call on z-scoreMRSA+
[11] = PKIS compound screen, HeLa cell count
[12] = PKIS compound screen, Yes/No call on z-scoreHeLa
[13] = PKIS compounds raw data, MRSA-infected HeLa cells
[14] = PKIS compounds raw data, HeLa cell count
[15] = PKIS compound screen, Yes/No call

CNc1nc(-c2ccc3c(N)n[nH]c3c2)cc(N2C[C@@H](C(=O)NC3CCCCC3)OC[C@H]2C)n1 [GSK2375584A]
%GFP+ rep 1 [1, 3]: 21.4%
%GFP+ rep 2 [1, 3]: 23.1%
%GFP+ rep 3 [1, 3]: 26.2%
effect ([1]; Yes/No call from z-scoreMRSA+): No
hit [1, 4]: No
z-scoreMRSA+ mean [1, 5]: 1.02
z-scoreMRSA+ rep 1 [1, 5]: 0.70
z-scoreMRSA+ rep 2 [1, 5]: 1.01
z-scoreMRSA+ rep 3 [1, 5]: 1.36
cell count rep 1 [2, 6]: 30717
cell count rep 2 [2, 6]: 29074
cell count rep 3 [2, 6]: 21029
cell death ([2]; Yes/No call from z-scoreHeLa): No
z-scoreHeLa mean [2, 7]: 0.38
z-scoreHeLa rep 1 [2, 7]: 0.09
z-scoreHeLa rep 2 [2, 7]: 0.65
z-scoreHeLa rep 3 [2, 7]: 0.41

CC(C)S(=O)(=O)N1CCN(Cc2ccc3c(c2)nc(NC(=O)c2ccsc2)n3C[C@H](O)c2ccccc2)CC1 [GW635815X]
%GFP+ rep 1 [1, 3]: 12.8%
%GFP+ rep 2 [1, 3]: 14.2%
%GFP+ rep 3 [1, 3]: 14.5%
z-scoreMRSA+ mean [1, 8]: -1.62
z-scoreMRSA+ rep 1 [1, 8]: -1.60
z-scoreMRSA+ rep 2 [1, 8]: -1.42
z-scoreMRSA+ rep 3 [1, 8]: -1.84
hit [1, 9]: No
effect [1, 10]: No
cell count rep 1 [2, 6]: 31634
cell count rep 2 [2, 6]: 26865
cell count rep 3 [2, 6]: 24254
z-scoreHeLa mean [2, 11]: 0.52
z-scoreHeLa rep 1 [2, 11]: 0.24
z-scoreHeLa rep 2 [2, 11]: 0.27
z-scoreHeLa rep 3 [2, 11]: 1.04
cell death [2, 12]: No

O=S(=O)(c1cccc(F)c1)c1ccc(Nc2ncnc3cc(Br)sc23)cc1Cl [GSK306886A]
%GFP+ rep 1 [1, 13]: 13.2%
%GFP+ rep 2 [1, 13]: 13.8%
%GFP+ rep 3 [1, 13]: 13.0%
effect ([1]; Yes/No call from z-scoreMRSA+): No
hit [1, 4]: No
z-scoreMRSA+ mean [1, 5]: -0.25
z-scoreMRSA+ rep 1 [1, 5]: 0.00934
z-scoreMRSA+ rep 2 [1, 5]: 0.10
z-scoreMRSA+ rep 3 [1, 5]: -0.85
cell count rep 1 [2, 14]: 2697
cell count rep 2 [2, 14]: 1761
cell count rep 3 [2, 14]: 5093
cell death ([2]; Yes/No call from z-scoreHeLa): No
z-scoreHeLa mean [2, 7]: -1.56
z-scoreHeLa rep 1 [2, 7]: -1.88
z-scoreHeLa rep 2 [2, 7]: -1.89
z-scoreHeLa rep 3 [2, 7]: -0.89

CC(C)(C)c1ccc2nccc(Nc3cccc(O)c3)c2c1 [GW856795X]
%GFP+ rep 1 [1, 3]: 14.7%
%GFP+ rep 2 [1, 3]: 17.0%
%GFP+ rep 3 [1, 3]: 17.5%
z-scoreMRSA+ mean [1, 8]: -0.72
z-scoreMRSA+ rep 1 [1, 8]: -1.00
z-scoreMRSA+ rep 2 [1, 8]: -0.46
z-scoreMRSA+ rep 3 [1, 8]: -0.70
hit [1, 9]: No
effect [1, 10]: No
cell count rep 1 [2, 6]: 35017
cell count rep 2 [2, 6]: 26624
cell count rep 3 [2, 6]: 35940
z-scoreHeLa mean [2, 11]: 0.00181
z-scoreHeLa rep 1 [2, 11]: 2.26
z-scoreHeLa rep 2 [2, 11]: -1.52
z-scoreHeLa rep 3 [2, 11]: -0.73
cell death [2, 12]: No

Cn1cncc1-c1cc2c(Nc3ccc(OCc4ccccc4)cc3)ncnc2cn1 [GW281179X]
%GFP+ rep 1 [1, 3]: 19.2%
%GFP+ rep 2 [1, 3]: 17.8%
%GFP+ rep 3 [1, 3]: 19.0%
z-scoreMRSA+ mean [1, 8]: -0.31
z-scoreMRSA+ rep 1 [1, 8]: 0.11
z-scoreMRSA+ rep 2 [1, 8]: -0.44
z-scoreMRSA+ rep 3 [1, 8]: -0.61
effect [1, 15]: No
hit [1, 9]: No
effect [1, 10]: No
z-scoreMRSA+ mean ([1]; PKIS compound screen): -0.18
z-scoreMRSA+ rep 1 ([1]; PKIS compound screen): -0.25
z-scoreMRSA+ rep 2 ([1]; PKIS compound screen): 0.13
z-scoreMRSA+ rep 3 ([1]; PKIS compound screen): -0.42
%GFP+ rep 1 [1, 13]: 25.8%
%GFP+ rep 2 [1, 13]: 26.7%
%GFP+ rep 3 [1, 13]: 25.0%
cell count rep 1 [2, 6]: 28376
cell count rep 2 [2, 6]: 11001
cell count rep 3 [2, 6]: 11278
z-scoreHeLa mean [2, 11]: -1.41
z-scoreHeLa rep 1 [2, 11]: -0.31
z-scoreHeLa rep 2 [2, 11]: -2.45
z-scoreHeLa rep 3 [2, 11]: -1.49
cell death [2, 15]: No
cell death [2, 12]: No
z-scoreHeLa mean ([2]; PKIS compound screen): -1.83
z-scoreHeLa rep 1 ([2]; PKIS compound screen): -2.06
z-scoreHeLa rep 2 ([2]; PKIS compound screen): -2.65
z-scoreHeLa rep 3 ([2]; PKIS compound screen): -0.79
cell count rep 1 [2, 14]: 2614
cell count rep 2 [2, 14]: 2008
cell count rep 3 [2, 14]: 4357

O=C1Nc2ccc(-c3cccnc3)cc2C1=Cc1cc(Br)c(O)c(Br)c1 [GW429374A]
%GFP+ rep 1 [1, 3]: 14.3%
%GFP+ rep 2 [1, 3]: 14.7%
%GFP+ rep 3 [1, 3]: 15.6%
z-scoreMRSA+ mean [1, 8]: -1.18
z-scoreMRSA+ rep 1 [1, 8]: -1.13
z-scoreMRSA+ rep 2 [1, 8]: -1.15
z-scoreMRSA+ rep 3 [1, 8]: -1.27
hit [1, 9]: No
effect [1, 10]: No
cell count rep 1 [2, 6]: 24917
cell count rep 2 [2, 6]: 38643
cell count rep 3 [2, 6]: 50434
z-scoreHeLa mean [2, 11]: 1.01
z-scoreHeLa rep 1 [2, 11]: 0.73
z-scoreHeLa rep 2 [2, 11]: 0.72
z-scoreHeLa rep 3 [2, 11]: 1.58
cell death [2, 12]: No

COc1cccc(-n2nc(C)c3c(N/N=C(\C)c4ccncc4)ncnc32)c1 [GW809885X]
%GFP+ rep 1 [1, 13]: 10.1%
%GFP+ rep 2 [1, 13]: 9.2%
%GFP+ rep 3 [1, 13]: 10.0%
effect ([1]; Yes/No call from z-scoreMRSA+): No
hit [1, 4]: No
z-scoreMRSA+ mean [1, 5]: -1.40
z-scoreMRSA+ rep 1 [1, 5]: -0.98
z-scoreMRSA+ rep 2 [1, 5]: -1.45
z-scoreMRSA+ rep 3 [1, 5]: -1.76
cell count rep 1 [2, 14]: 4315
cell count rep 2 [2, 14]: 6939
cell count rep 3 [2, 14]: 7689
cell death ([2]; Yes/No call from z-scoreHeLa): No
z-scoreHeLa mean [2, 7]: 0.65
z-scoreHeLa rep 1 [2, 7]: -0.42
z-scoreHeLa rep 2 [2, 7]: 2.02
z-scoreHeLa rep 3 [2, 7]: 0.35

COc1ccc(Nc2nccc(N3CCC(NC(=O)c4cc5ccccc5s4)C3)n2)cc1 (centres unmarked) [GSK1379738A]
%GFP+ rep 1 [1, 3]: 23.4%
%GFP+ rep 2 [1, 3]: 24.0%
%GFP+ rep 3 [1, 3]: 25.7%
z-scoreMRSA+ mean [1, 8]: 1.73
z-scoreMRSA+ rep 1 [1, 8]: 1.76
z-scoreMRSA+ rep 2 [1, 8]: 1.65
z-scoreMRSA+ rep 3 [1, 8]: 1.80
hit [1, 9]: No
effect [1, 10]: No
cell count rep 1 [2, 6]: 35022
cell count rep 2 [2, 6]: 33049
cell count rep 3 [2, 6]: 42431
z-scoreHeLa mean [2, 11]: 0.75
z-scoreHeLa rep 1 [2, 11]: 2.26
z-scoreHeLa rep 2 [2, 11]: -0.32
z-scoreHeLa rep 3 [2, 11]: 0.30
cell death [2, 12]: No
